Assay results: patent US20260374752A1, “COMPOUNDS, COMPOSITIONS, AND METHODS” (Tenvie Therapeutics, Inc., priority 2023, published 2026)
Like-named read-outs stand apart in the source and are kept apart here.

Target: T1, (Homo sapiens, UniProt Q96P20)
T1 construct: IL-1β ELISA of supernatant
Test: IL-1β secretion assay in THP-1 cells (PMA differentiated, LPS and nigericin stimulated; ELISA)
Type: cell-based
Protocol: Biochemical Assay of the Compounds
Procedure for Culturing THP-1 Cells
Compounds as provided herein were tested in the following assay. Cell culture medium employed contained RPMI 1640 medium (89%), FBS (10%), Pen/Strep (1%), and 2-mercaptoethanol (0.05 mM). Freezing medium was made up of 90% FBS and 10% DMSO. THP-1 cells were removed from the liquid nitrogen and placed into a 37 °C water bath to thaw, until signs of ice dissipated. The cells were then added to 9 mL of warm cell culture medium and centrifuged for 5 minutes at 1000 rpm. The supernatant was discarded, and the cells were resuspended in new cell culture medium. THP-1 cells were then split and cultured in the cell culture medium, being passaged every 2-3 days with the cell density will be maintained between 5×10^5 and 1.5×10^6 viable cells/mL.
To freeze, cells were resuspended with fresh freezing medium, adjusting the cell density to 5×10^6 cells/mL. The cell suspension was partitioned into 1 mL aliquots per vial, and the vials were transferred to a −80 °C freezer. After one day at −80 °C, the cell vials were transferred to liquid nitrogen freezer for storage.
Procedure for IL-Iβ Secretion Assay in 384-Well Plates
PMA was dissolved in DMSO to make a stock solution at 5 mg/ml and stored in 10 μl aliquots at −20 °C for single use. PMA is added to normal growth medium. LPS was diluted with 1 mL of water solution to provide a 1 mg/mL stock solution and stored in 15 μL aliquots at −20 °C for single use. Nigericin is diluted in ice cold 100% ethanol to 5 mg/ml (6.7 mM) and stored in 75 μL aliquots at −20 °C for single use. Serum-free media contains RPMI 1640 medium (99%), Pen/Strep (1%), and 2-mercaptoethanol (0.05 mM). The two control conditions used to qualify and normalize test compound dose-response curves were as follows: High Control=25 ng/mL LPS, 5 μM Nigericin, 0.5% DMSO, Low Control=25 ng/ml, LPS, 0.5% DMSO.
Day 1: Differentiation with PMA
THP-1 cells were diluted to provide a suspension at a concentration of 1.0×10^6 cells/mL with the total volume of suspension required to enable the desired number of assay plates. The growth media was supplemented with PMA (5 ng/mL final concentration) and the cells were incubated at 37 °C under a humidified atmosphere of 5% CO2 for 40 h.
Day 3: Plating with Sequential LPS and Nigericin Stimulation
All media was carefully aspirated from each culture flask. The cells were washed carefully with 1× DPBS. The cells were then briefly digested with trypsin LE for 5 minutes at 23 °C and immediately resuspended in cell growth media. After resuspension, the cells were centrifuged at 1000 rpm for 3 minutes and the supernatant was discarded. The cells were resuspended in DPBS and once again centrifuged at 1000 rpm for 5 minutes. The supernatant was discarded and the cell pellet was resuspended in serum-free media supplemented with LPS (25 ng/mL final concentration) to enable the distribution of 30K THP-1 cells within 45 μL of media into each well of 384-well PDL-coated plates. The 384-well plates were then incubated at 37 °C under a humidified atmosphere of 5% CO2 for 2 h. Following this period, test compounds were dispensed by Tecan across the desired concentration range with all wells normalized to a final 0.5% DMSO concentration. The plates were then then incubated at 37 °C under a humidified atmosphere of 5% CO2 for 1 h. Following this period, 5 μL of the […] nigericin stock solution was added to each of the appropriate wells and plates were centrifuged at 1000 rpm for 30 seconds. The plates were the immediately reintroduced to the incubator at 37 °C under a humidified atmosphere of 5% CO2 for 2 h. After this time, 35 μL/well of supernatant was collected and transferred into v-bottom plate and centrifuged at 1000 rpm for 1 minute. These supernatant aliquots were analyzed using an IL-Iβ detection kit as described below. If needed, the test samples could be snap frozen and stored at −80 °C until analyzed. […]

[1] = inhibition of IL-1β secretion, 25 ng/mL LPS, 5 μM Nigericin, 0.5% DMSO, read-out: Activity (IC50)
[2] = inhibition of IL-1β secretion, 25 ng/mL LPS, 5 μM Nigericin, 0.5% DMSO, read-out: Activity (IC50 class)

T1 sequence (Q96P20 whole entry): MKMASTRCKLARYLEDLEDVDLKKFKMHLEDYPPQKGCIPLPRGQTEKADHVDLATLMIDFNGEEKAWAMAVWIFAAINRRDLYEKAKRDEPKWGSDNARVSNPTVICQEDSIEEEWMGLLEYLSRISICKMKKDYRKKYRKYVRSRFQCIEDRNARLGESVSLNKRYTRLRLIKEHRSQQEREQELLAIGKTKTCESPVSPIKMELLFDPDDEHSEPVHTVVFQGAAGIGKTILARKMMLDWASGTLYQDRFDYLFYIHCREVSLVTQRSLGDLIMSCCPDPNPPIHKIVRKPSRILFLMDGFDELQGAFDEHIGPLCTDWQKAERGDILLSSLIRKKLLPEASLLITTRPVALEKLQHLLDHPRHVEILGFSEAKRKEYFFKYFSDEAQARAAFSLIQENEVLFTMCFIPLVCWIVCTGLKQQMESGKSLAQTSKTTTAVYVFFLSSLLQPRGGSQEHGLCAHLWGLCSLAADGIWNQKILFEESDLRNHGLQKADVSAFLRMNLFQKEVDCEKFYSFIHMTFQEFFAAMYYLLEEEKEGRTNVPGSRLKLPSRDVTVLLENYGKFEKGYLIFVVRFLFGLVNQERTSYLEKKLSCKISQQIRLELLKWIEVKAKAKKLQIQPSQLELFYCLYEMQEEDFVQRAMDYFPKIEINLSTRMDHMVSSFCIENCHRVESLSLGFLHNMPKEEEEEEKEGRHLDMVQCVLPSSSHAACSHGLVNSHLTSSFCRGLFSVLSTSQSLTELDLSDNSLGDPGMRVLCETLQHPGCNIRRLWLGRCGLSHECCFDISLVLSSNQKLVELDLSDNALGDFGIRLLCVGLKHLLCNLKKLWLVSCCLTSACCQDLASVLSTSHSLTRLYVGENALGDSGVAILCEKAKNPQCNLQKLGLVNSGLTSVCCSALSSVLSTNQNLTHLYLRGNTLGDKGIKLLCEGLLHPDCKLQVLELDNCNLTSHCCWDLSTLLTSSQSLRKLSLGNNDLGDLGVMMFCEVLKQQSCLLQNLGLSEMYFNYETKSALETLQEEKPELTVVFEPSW

| SMILES | IC50 [1] [nM] | IC50 [2] [nM] | IC50 (read-out: Activity (IC50), inhibition of IL-1β secretion, 25 ng/mL LPS, 5 μM Nigericin, 0.5% DMSO) [nM] | IC50 (read-out: Activity (IC50 class), inhibition of IL-1β secretion, 25 ng/mL LPS, 5 μM Nigericin, 0.5% DMSO) [nM] |
| --- | --- | --- | --- | --- |
| O=C(CN1C(=O)c2ccc(Br)cc2[C@@H]2CCC[C@@H]21)Nc1ncc(F)cn1 (relative stereo) [compound 1, 2-(cis-8-bromo-5-oxo-2,3,3a,9b-tetrahydro-1H-cyclopenta[c]isoquinolin-4-yl)-N-(5-fluoropyrimidin-2-yl) acetamide] |  |  | 700 | < 1000 |
| O=C(CN1C(=O)c2ccc(Br)cc2[C@]2(C(F)(F)F)C[C@H]12)Nc1ncc(F)cn1 (single isomer, unassigned) [compound 2, 2-[trans-6-bromo-3-oxo-7b-(trifluoromethyl)-1,1a-dihydrocyclopropa[c]isoquinolin-2-yl]-N-(5-fluoropyrimidin-2-yl) acetamide] | 270 | < 1000 |  |  |
| O=C(CN1C(=O)c2ccc(Br)cc2[C@]2(C(F)(F)F)C[C@H]12)Nc1ncc(F)cn1 (single isomer, unassigned) [compound 3, 2-[trans-6-bromo-3-oxo-7b-(trifluoromethyl)-1,1a-dihydrocyclopropa[c]isoquinolin-2-yl]-N-(5-fluoropyrimidin-2-yl) acetamide] | 9500 | 1000 to 10000 |  |  |

The next lines start with the values.

| IC50 [1] [nM] | IC50 [2] [nM] | IC50 (read-out: Activity (IC50), inhibition of IL-1β secretion, 25 ng/mL LPS, 5 μM Nigericin, 0.5% DMSO) [nM] | IC50 (read-out: Activity (IC50 class), inhibition of IL-1β secretion, 25 ng/mL LPS, 5 μM Nigericin, 0.5% DMSO) [nM] | SMILES |
| --- | --- | --- | --- | --- |
| 240 | < 1000 |  |  | O=C(CN1C(=O)c2ccc(Br)cc2[C@@H]2CC[C@@H]21)Nc1ncc(F)cn1 (relative stereo) [compound 4, 2-(cis-7-bromo-4-oxo-1,2,2a,8b-tetrahydrocyclobuta[c]isoquinolin-3-yl)-N-(5-fluoropyrimidin-2-yl) acetamide] |
| 800 | < 1000 |  |  | O=C(CN1C(=O)c2ccc(Br)cc2[C@@H]2C[C@@H]21)Nc1ncc(F)cn1 (relative stereo) [compound 5, 2-(cis-6-bromo-3-oxo-1a,7b-dihydro-1H-cyclopropa[c]isoquinolin-2-yl)-N-(5-fluoropyrimidin-2-yl) acetamide] |
